Patent EP3623369A1, “NOVEL MORPHOLINYL AMINE COMPOUNDS FOR THE TREATMENT OF AUTOIMMUNE DISEASE” (F. Hoffmann-La Roche AG, priority 2018, dated 2020)

Target: T1, human TLR8 (Homo sapiens, UniProt Q9NR97)
T1 sequence (Q9NR97 27-1041): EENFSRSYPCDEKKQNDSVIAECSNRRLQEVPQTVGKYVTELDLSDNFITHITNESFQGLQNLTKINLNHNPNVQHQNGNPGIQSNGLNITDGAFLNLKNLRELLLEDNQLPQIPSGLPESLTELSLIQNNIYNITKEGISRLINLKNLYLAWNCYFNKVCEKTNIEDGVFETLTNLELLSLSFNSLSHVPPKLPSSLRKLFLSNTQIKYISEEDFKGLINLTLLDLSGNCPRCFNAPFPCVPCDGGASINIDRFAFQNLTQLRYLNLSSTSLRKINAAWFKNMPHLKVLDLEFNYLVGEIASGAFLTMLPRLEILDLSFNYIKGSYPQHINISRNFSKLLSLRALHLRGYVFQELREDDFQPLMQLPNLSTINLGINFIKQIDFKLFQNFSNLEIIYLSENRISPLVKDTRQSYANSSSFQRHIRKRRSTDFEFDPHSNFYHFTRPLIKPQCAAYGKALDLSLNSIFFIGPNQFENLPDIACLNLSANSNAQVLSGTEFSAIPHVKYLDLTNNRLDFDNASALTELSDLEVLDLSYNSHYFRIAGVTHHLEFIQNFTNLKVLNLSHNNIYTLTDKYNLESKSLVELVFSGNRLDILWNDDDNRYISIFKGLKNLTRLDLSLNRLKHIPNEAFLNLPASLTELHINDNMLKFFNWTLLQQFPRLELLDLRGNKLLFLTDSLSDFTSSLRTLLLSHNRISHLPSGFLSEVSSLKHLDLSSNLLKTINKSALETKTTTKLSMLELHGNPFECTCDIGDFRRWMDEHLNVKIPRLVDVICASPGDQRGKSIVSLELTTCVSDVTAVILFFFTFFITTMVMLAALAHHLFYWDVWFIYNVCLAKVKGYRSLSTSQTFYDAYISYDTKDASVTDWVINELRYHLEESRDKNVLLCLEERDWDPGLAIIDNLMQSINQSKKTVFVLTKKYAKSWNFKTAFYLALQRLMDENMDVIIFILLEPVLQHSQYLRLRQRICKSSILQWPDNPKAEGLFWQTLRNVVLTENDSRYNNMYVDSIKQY
Experiment: HEK293-Blue-hTLR-8 cells assay (SEAP reporter, R848 stimulation)
Type: cell-based
Details: HEK293-Blue-hTLR8 cells, R848, 20 hrs; 0.003 is the lowest tested concentration; read-out: HEK/hTLR8 IC50
Protocol: The following tests were carried out in order to determine the activity of the compounds of formula (I) or (Ia) in HEK293-Blue-hTLR-7/8/9 cells assay.
HEK293-Blue-hTLR-8 cells assay:
A stable HEK293-Blue-hTLR-8 cell line was purchased from InvivoGen (Cat.#: hkb-htlr8, San Diego, California, USA). These cells were originally designed for studying the stimulation of human TLR8 by monitoring the activation of NF-κB. A SEAP (secreted embryonic alkaline phosphatase) reporter gene was placed under the control of the IFN-β minimal promoter fused to five NF-κB and AP-1-binding sites. The SEAP was induced by activating NF-κB and AP-1 via stimulating HEK-Blue hTLR8 cells with TLR8 ligands. Therefore the reporter expression was declined by TLR8 antagonist under the stimulation of a ligand, such as R848, for incubation of 20 hrs. The cell culture supernatant SEAP reporter activity was determined using QUANTI-Blue™ kit (Cat.#: rep-qb1, Invivogen, San Diego, Ca, USA) at a wavelength of 640 nm, a detection medium that turns purple or blue in the presence of alkaline phosphatase.
HEK293-Blue-hTLR8 cells were incubated at a density of 250,000∼450,000 cells/mL in a volume of 170 µL in a 96-well plate in Dulbecco's Modified Eagle's medium (DMEM) containing 4.5 g/L glucose, 50 U/mL penicillin, […], […], 2 mM L-glutamine, 10% (v/v) heat-inactivated fetal bovine serum with addition of 20 µL test compound in a serial dilution in the presence of final DMSO at 1% and 10 µL of 60uM R848 in above DMEM, perform incubation under 37 °C in a CO2 incubator for 20 hrs. Then 20 µL of the supernatant from each well was incubated with 180 µL Quanti-blue substrate solution at 37°C for 2 hrs and the absorbance was read at 620∼655 nm using a spectrophotometer. The signalling pathway that TLR8 activation leads to downstream NF-κB activation has been widely accepted, and therefore similar reporter assay was modified for evaluating TLR8 antagonist.

Row | Structure (SMILES) | IC50 [nM]
1 | C[C@@H]1CN(c2ccc(Cl)c3nccnc23)C[C@H](CN2CCc3cc(N4CCNCC4)ccc3C2)O1 [Example 34, (2R,6S)-4-(8-chloroquinoxalin-5-yl)-2-methyl-6-[(6-piperazin-1-yl-3,4-dihydro-1H-isoquinolin-2-yl)methyl]morpholine] | 5
2 | COCCN1CCN(c2ccc3c(c2)CN(C[C@H]2CN(c4ccc(C#N)c5nccnc45)C[C@@H](C)O2)C3)CC1 [Example 37, 8-[(2S,6R)-2-[[5-[4-(2-methoxyethyl)piperazin-1-yl]isoindolin-2-yl]methyl]-6-methyl-morpholin-4-yl]quinoxaline-5-carbonitrile] | 9
3 | C[C@@H]1CN(c2ccc(C#N)n3nccc23)C[C@H](CN2CCc3cnccc3C2)O1 [Example R1, 4-[(2S,6R)-2-(3,4-dihydro-1H-2,6-naphthyridin-2-ylmethyl)-6-methyl-morpholin-4-yl]pyrazolo[1,5-a]pyridine-7-carbonitrile, reference compound] | 118
4 | C[C@@H]1CN(c2ccc3c(c2)CN(C[C@H]2CN(c4ccc(C#N)c5ncccc45)C[C@@H](C)O2)C3)C[C@@H](C)N1 (mixture of isomers) [Example 57, Trans-5-[(2R,6S)-2-methyl-6-[[5-[3,5-dimethylpiperazin-1-yl]isoindolin-2-yl]methyl]morpholin-4-yl]quinoline-8-carbonitrile] | 12
5 | C[C@@H]1CN(c2ccc(C#N)c3nccnc23)C[C@H](CN2Cc3ccc(N4C5CCC4CNC5)cc3C2)O1 [Example 41, 8-[(2S,6R)-2-[[5-(3,8-diazabicyclo[3.2.1]octan-8-yl)isoindolin-2-yl]methyl]-6-methyl-morpholin-4-yl]quinoxaline-5-carbonitrile] | 9
6 | C[C@@H]1CN(c2ccc(C#N)c3ncccc23)C[C@H](CN2Cc3cc(N4CCNCC4)cc(F)c3C2)O1 [Example 59, 5-[(2S,6R)-2-[(4-fluoro-6-piperazin-1-yl-isoindolin-2-yl)methyl]-6-methyl-morpholin-4-yl]quinoline-8-carbonitrile] | < 3
7 | CCOC(=O)C1CNCCN1c1ccc2c(c1)CN(C[C@H]1CN(c3ccc(C#N)c4ncccc34)C[C@@H](C)O1)C2 (stereo partly drawn) [Example 50, Ethyl 1-[2-[[(2S,6R)-4-(8-cyano-5-quinolyl)-6-methyl-morpholin-2-yl]methyl]isoindolin-5-yl] piperazine-2-carboxylate] | 33
8 | C[C@@H]1CN(c2ccc(C#N)c3ncccc23)C[C@H](CN2Cc3ccc(CN4CCCCC4)cc3C2)O1 [Example 74, 5-[(2R,6S)-2-methyl-6-[[5-(1-piperidylmethyl)isoindolin-2-yl]methyl]morpholin-4-yl]quinoline-8-carbonitrile] | < 3
9 | C[C@@H]1CN(c2ccc(C#N)c3ncccc23)C[C@H](CN2Cc3ccc(N4CCNC[C@@H]4CO)cc3C2)O1 [Example 82, 5-[(2S,6R)-2-[[5-[(2R)-2-(hydroxymethyl)piperazin-1-yl]isoindolin-2-yl]methyl]-6-methyl-morpholin-4-yl]quinoline-8-carbonitrile] | 14
10 | C[C@@H]1CN(c2ccc(C#N)c3nccnc23)C[C@H](CN2Cc3ccc(N4CC5COCC(C4)N5)cc3C2)O1 [Example 49, 8-[(2R,6S)-2-methyl-6-[[5-(3-oxa-7,9-diazabicyclo[3.3.1]nonan-7-yl)isoindolin-2-yl]methyl]morpholin-4-yl]quinoxaline-5-carbonitrile] | 14
11 | C[C@@H]1CN(c2ccc(C#N)n3nccc23)C[C@H](CN2Cc3cc(N4CCNCC4)cnc3C2)O1 [Example 18, 4-[(2R,6S)-2-methyl-6-[(3-piperazin-1-yl-5,7-dihydropyrrolo[3,4-b]pyridin-6-yl)methyl]morpholin-4-yl]pyrazolo[1,5-a]pyridine-7-carbonitrile] | 31
12 | C[C@@H]1CN(c2ccc(C#N)c3ncccc23)C[C@H](CN2Cc3cnc(N4CCNCC4)cc3C2)O1 [Example 61, 5-[(2R,6S)-2-methyl-6-[(6-piperazin-1-yl-1,3-dihydropyrrolo[3,4-c]pyridin-2-yl)methyl]morpholin-4-yl]quinoline-8-carbonitrile] | < 3
13 | C[C@@H]1CN(c2ccc(Cl)c3nccnc23)C[C@H](CN2Cc3ccc(N4CCNCC4)cc3C2)O1 [Example 33, (2R,6S)-4-(8-chloroquinoxalin-5-yl)-2-methyl-6-[(5-piperazin-1-ylisoindolin-2-yl)methyl]morpholine] | 5

More lines, now with the values ahead:

Row | IC50 [nM] | Structure (SMILES)
14 | 21 | C[C@@H]1CN(c2ccc(C#N)n3nccc23)C[C@H](CN2CCc3cc(N4CCN(C)CC4)ccc3C2)O1 [Example 15, 4-[(2R,6S)-2-methyl-6-[[6-(4-methylpiperazin-1-yl)-3,4-dihydro-1H-isoquinolin-2-yl]methyl]morpholin-4-yl]pyrazolo[1,5-a]pyridine-7-carbonitrile]
15 | < 3 | CC1CN(c2ccc3c(c2)CN(C[C@H]2CN(c4ccc(C#N)c5nccnc45)C[C@@H](C)O2)C3)CCN1 (stereo partly drawn) [Example 36, 8-[(2R,6S)-2-methyl-6-[[5-(3-methylpiperazin-1-yl)isoindolin-2-yl]methyl]morpholin-4-yl]quinoxaline-5-carbonitrile]
16 | 6 | C[C@@H]1CN(c2ccc(C#N)c3ncccc23)C[C@H](CN2Cc3ccc(N4CCN[C@@H](C)C4)cc3C2)O1 [Example 64, 5-[(2R,6S)-2-methyl-6-[[5-[(3S)-3-methylpiperazin-1-yl]isoindolin-2-yl]methyl]morpholin-4-yl]quinoline-8-carbonitrile]
17 | < 3 | C[C@@H]1CN(c2ccc(C#N)c3ncccc23)C[C@H](CN2Cc3cc(N4CCN(C)CC4)cc(F)c3C2)O1 [Example 69, 5-[(2S,6R)-2-[[4-fluoro-6-(4-methylpiperazin-1-yl)isoindolin-2-yl]methyl]-6-methyl-morpholin-4-yl]quinoline-8-carbonitrile]
18 | < 3 | C[C@@H]1CN(c2ccc3c(c2)CN(C[C@H]2CN(c4ccc(C#N)c5nccnc45)C[C@@H](C)O2)C3)CCN1 [Example 65, 8-[(2R,6S)-2-methyl-6-[[5-[(3R)-3-methylpiperazin-1-yl]isoindolin-2-yl]methyl]morpholin-4-yl] quinoxaline-5-carbonitrile]
19 | < 3 | C[C@@H]1CN(c2ccc(C#N)c3ncsc23)C[C@H](CN2Cc3cc(N4CCNCC4)cnc3C2)O1 [Example 25, 7-[(2R,6S)-2-methyl-6-[(3-piperazin-1-yl-5,7-dihydropyrrolo[3,4-b]pyridin-6-yl)methyl]morpholin-4-yl]-1,3-benzothiazole-4-carbonitrile]
20 | 13 | C[C@@H]1CN(c2ccc(Cl)c3ncccc23)C[C@H](CN2Cc3ccc(N4CCNCC4)cc3C2)O1 [Example 31, (2R,6S)-4-(8-chloro-5-quinolyl)-2-methyl-6-[(5-piperazin-1-ylisoindolin-2-yl)methyl]morpholine]
